18 compounds from patent US10081623B2, “Diamide macrocycles that are FXIa inhibitors” (BRISTOL-MYERS SQUIBB COMPANY, priority 2014, dated 2018) can be followed below.

purified human Factor XIa, sequence (P03951 388-625): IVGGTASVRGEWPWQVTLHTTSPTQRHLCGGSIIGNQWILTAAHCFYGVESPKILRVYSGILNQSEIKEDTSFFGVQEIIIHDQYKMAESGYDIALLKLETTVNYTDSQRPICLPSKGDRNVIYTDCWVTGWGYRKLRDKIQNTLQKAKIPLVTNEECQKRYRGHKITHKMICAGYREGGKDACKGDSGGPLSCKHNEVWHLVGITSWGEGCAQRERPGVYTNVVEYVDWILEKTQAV
purified human Factor XIa, sequence (P03951 19-387 partner): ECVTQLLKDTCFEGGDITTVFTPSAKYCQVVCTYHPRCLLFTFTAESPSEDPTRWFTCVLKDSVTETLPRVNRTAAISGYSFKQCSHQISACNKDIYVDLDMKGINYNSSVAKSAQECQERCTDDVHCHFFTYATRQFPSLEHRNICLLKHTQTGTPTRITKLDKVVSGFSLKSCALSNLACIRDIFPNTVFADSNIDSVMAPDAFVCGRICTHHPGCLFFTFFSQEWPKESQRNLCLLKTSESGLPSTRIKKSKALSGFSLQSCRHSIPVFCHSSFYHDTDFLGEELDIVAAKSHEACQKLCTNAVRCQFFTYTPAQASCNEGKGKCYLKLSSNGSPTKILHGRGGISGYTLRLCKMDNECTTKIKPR

In the experiment the target is purified human Factor XIa (Homo sapiens (Human), UniProt P03951). Kind of experiment: Factor XIa assay (chromogenic substrate S-2366 hydrolysis, Ki). The experiment is classed as biochemical. As to conditions: measured at 37° C. The method, then:
The effectiveness of compounds of the present invention as inhibitors of the coagulation Factors XIa, VIIa, IXa, Xa, XIIa, plasma kallikrein or thrombin, can be determined using a relevant purified serine protease, respectively, and an appropriate synthetic substrate. The rate of hydrolysis of the chromogenic or fluorogenic substrate by the relevant serine protease was measured both in the absence and presence of compounds of the present invention. […] A decrease in the rate of absorbance or fluorescence change in the presence of inhibitor is indicative of enzyme inhibition. Such methods are known to one skilled in the art. The results of this assay are expressed as the inhibitory constant, Ki.
Factor XIa determinations were made in 50 mM HEPES buffer at pH 7.4 containing 145 mM NaCl, 5 mM KCl, and 0.1% PEG 8000 (polyethylene glycol; JT Baker or Fisher Scientific). Determinations were made using purified human Factor XIa at a final concentration of 25-200 pM (Haematologic Technologies) and the synthetic substrate S-2366 (pyroGlu-Pro-Arg-pNA; CHROMOGENIX® or AnaSpec) at a concentration of 0.0002-0.001 M.
The Michaelis constant, Km, for substrate hydrolysis by each protease, was determined at 25° C. or 37° C. in the absence of inhibitor. Values of Ki were determined by allowing the protease to react with the substrate in the presence of the inhibitor. […] The following relationships were used to calculate Ki values: (Vmax*S)/(Km+S); (vo−vs)/vs=I/(Ki(1+S/Km)) for a competitive inhibitor with one binding site; or vs/vo=A+(B−A)/(1+(I/IC50)^n); and Ki=IC50/(1+S/Km) for a competitive inhibitor where: […]
`COC(=O)Nc1ccc2c(c1)NC(=O)CCCCCC(C(=O)NCCc1cc(Cl)ccc1-n1cnnn1)NC2=O` (racemic) [Example 1, (±)-Methyl N-[8-({2-[5-chloro-2-(1H-1,2,3,4-tetrazol-1-yl)phenyl]ethyl}carbamoyl)-2,10-dioxo-1,2,3,4,5,6,7,8,9,10-decahydro-1,9-benzodiazacyclododecin-13-yl]carbamate] came in with a Ki of 17.9 nM.

As for `COC(=O)Nc1ccc2c(c1)NC(=O)CCCCCC(C(=O)NC1CCN(C(=N)N)CC1)NC2=O` (racemic) [Example 4, (±)-Methyl N-{8-[(1-carbamimidoylpiperidin-4-yl)carbamoyl]-2,10-dioxo-1,2,3,4,5,6,7,8,9,10-decahydro-1,9-benzodiazacyclododecin-13-yl}carbamate], the Ki was 1490 nM.

`COC(=O)Nc1ccc2c(c1)NC(=O)CCCCCC(C(=O)NCC1CCN(C(=N)N)CC1)NC2=O` (racemic) [Example 5, (±)-Methyl N-(8-{[(1-carbamimidoylpiperidin-4-yl)methyl]carbamoyl}-2,10-dioxo-1,2,3,4,5,6,7,8,9,10-decahydro-1,9-benzodiazacyclododecin-13-yl)carbamate] gave an inhibition constant (Ki) of 825 nM.

`COC(=O)Nc1ccc2c(c1)NC(=O)CCCCCC(C(=O)NCCC1CCN(C(=N)N)CC1)NC2=O` (racemic) [Example 6, (±)-Methyl N-(8-{[2-(1-carbamimidoylpiperidin-4-yl)ethyl]carbamoyl}-2,10-dioxo-1,2,3,4,5,6,7,8,9,10-decahydro-1,9-benzodiazacyclododecin-13-yl)carbamate] gave a Ki of 627 nM.

Compound `COC(=O)Nc1ccc2c(c1)NC(=O)CCCCCC(C(=O)NC1Cc3ccccc3NC1=O)NC2=O` (racemic) [Example 7, (±)-Methyl N-{2,10-dioxo-8-[(2-oxo-1,2,3,4-tetrahydroquinolin-3-yl)carbamoyl]-1,2,3,4,5,6,7,8,9,10-decahydro-1,9-benzodiazacyclododecin-13-yl}carbamate] came in with an inhibition constant Ki of 708 nM.

In turn, `COC(=O)Nc1ccc2c(c1)NC(=O)CCCCCC(C(=O)NCc1csc3ccc(Cl)cc13)NC2=O` (racemic) [Example 8, (±)-Methyl N-(8-{[(5-chloro-1-benzothiophen-3-yl)methyl]carbamoyl}-2,10-dioxo-1,2,3,4,5,6,7,8,9,10-decahydro-1,9-benzodiazacyclododecin-13-yl)carbamate] gave a Ki of 1340 nM.

Consider `COC(=O)Nc1ccc2c(c1)NC(=O)CCCCCC(C(=O)N1CCCC(c3cccc(OC)c3)C1)NC2=O` (racemic) [Example 10, (±)-Methyl N-{8-[3-(3-methoxyphenyl)piperidine-1-carbonyl]-2,10-dioxo-1,2,3,4,5,6,7,8,9,10-decahydro-1,9-benzodiazacyclododecin-13-yl}carbamate], for which the Ki was 2620 nM.

As to `COC(=O)Nc1ccc2c(c1)NC(=O)CCC=CCC(C(=O)NCCc1cc(Cl)ccc1-n1cnnn1)NC2=O` (racemic) [Example 22, (E/Z)-(±)-Methyl N-[8-({2-[5-chloro-2-(1H-1,2,3,4-tetrazol-1-yl)phenyl]ethyl}carbamoyl)-2,10-dioxo-1,2,3,4,7,8,9,10-octahydro-1,9-benzodiazacyclododecin-13-yl]carbamate], the Ki is less than 5 nM.

As for `O=C1CCC=CCC(C(=O)NCCc2cc(Cl)ccc2-n2cnnn2)NC(=O)c2ccccc2N1` (racemic) [Example 27, (E/Z)-(±)-N-{2-[5-Chloro-2-(1H-1,2,3,4-tetrazol-1-yl)phenyl]ethyl}-2,10-dioxo-1,2,3,4,7,8,9,10-octahydro-1,9-benzodiazacyclododecine-8-carboxamide], affinity was put at a Ki of 39.1 nM.

Consider `N=C(N)N1CCC(CNC(=O)C2CC=CCCC(=O)Nc3ccccc3C(=O)N2)CC1` (racemic) [Example 29, (E/Z)-(±)-N-[(1-Carbamimidoylpiperidin-4-yl)methyl]-2,10-dioxo-1,2,3,4,7,8,9,10-octahydro-1,9-benzodiazacyclododecine-8-carboxamide], for which the Ki worked out at 1400 nM.

As to `N=C(N)N1CCC(NC(=O)C2C/C=C\CCC(=O)Nc3ccccc3C(=O)N2)CC1` (racemic) [Example 30, (Z)-(±)-N-(1-Carbamimidoylpiperidin-4-yl)-2,10-dioxo-1,2,3,4,7,8,9,10-octahydro-1,9-benzodiazacyclododecine-8-carboxamide], affinity was put at a Ki of 2200 nM.

Compound `N=C(N)N1CCC(NC(=O)C2C/C=C/CCC(=O)Nc3ccccc3C(=O)N2)CC1` (racemic) [Example 31, (E)-(±)-N-(1-Carbamimidoylpiperidin-4-yl)-2,10-dioxo-1,2,3,4,7,8,9,10-octahydro-1,9-benzodiazacyclododecine-8-carboxamide] had a Ki of 811 nM.

As for `COC(=O)Nc1ccc2c(c1)NC(=O)CCCCCC(C(=O)NCCc1cc(Cl)ccc1-n1cnnn1)NC2=O` (single isomer, unassigned) [Example 2, Methyl N-[8-({2-[5-chloro-2-(1H-1,2,3,4-tetrazol-1-yl)phenyl]ethyl}carbamoyl)-2,10-dioxo-1,2,3,4,5,6,7,8,9,10-decahydro-1,9-benzodiazacyclododecin-13-yl]carbamate], the Ki was 2180 nM.

With `COC(=O)Nc1ccc2c(c1)NC(=O)CCCCCC(C(=O)NCCc1cc(Cl)ccc1-n1cnnn1)NC2=O` (single isomer, unassigned) [Example 3, Methyl N-[8-({2-[5-chloro-2-(1H-1,2,3,4-tetrazol-1-yl)phenyl]ethyl}carbamoyl)-2,10-dioxo-1,2,3,4,5,6,7,8,9,10-decahydro-1,9-benzodiazacyclododecin-13-yl]carbamate], the Ki was 41.9 nM.

Consider `COC(=O)Nc1ccc2c(c1)NC(=O)CC/C=C\CC(C(=O)NCCc1cc(Cl)ccc1-n1cnnn1)NC2=O` (single isomer, unassigned) [Example 23, (Z)-Methyl N-[8-({2-[5-chloro-2-(1H-1,2,3,4-tetrazol-1-yl)phenyl]ethyl}carbamoyl)-2,10-dioxo-1,2,3,4,7,8,9,10-octahydro-1,9-benzodiazacyclododecin-13-yl]carbamate], for which the Ki was 157 nM.

`COC(=O)Nc1ccc2c(c1)NC(=O)CC/C=C\CC(C(=O)NCCc1cc(Cl)ccc1-n1cnnn1)NC2=O` (single isomer, unassigned) [Example 24, (Z)-Methyl N-[8-({2-[5-chloro-2-(1H-1,2,3,4-tetrazol-1-yl)phenyl]ethyl}carbamoyl)-2,10-dioxo-1,2,3,4,7,8,9,10-octahydro-1,9-benzodiazacyclododecin-13-yl]carbamate] had a Ki of 153 nM.

`COC(=O)Nc1ccc2c(c1)NC(=O)CC/C=C/CC(C(=O)NCCc1cc(Cl)ccc1-n1cnnn1)NC2=O` (single isomer, unassigned) [Example 25, (E)-Methyl N-[8-({2-[5-chloro-2-(1H-1,2,3,4-tetrazol-1-yl)phenyl]ethyl}carbamoyl)-2,10-dioxo-1,2,3,4,7,8,9,10-octahydro-1,9-benzodiazacyclododecin-13-yl]carbamate] gave a Ki of less than 5 nM.

Compound `COC(=O)Nc1ccc2c(c1)NC(=O)CC/C=C/CC(C(=O)NCCc1cc(Cl)ccc1-n1cnnn1)NC2=O` (single isomer, unassigned) [Example 26, (E)-Methyl N-[8-({2-[5-chloro-2-(1H-1,2,3,4-tetrazol-1-yl)phenyl]ethyl}carbamoyl)-2,10-dioxo-1,2,3,4,7,8,9,10-octahydro-1,9-benzodiazacyclododecin-13-yl]carbamate] returned a Ki of 64.1 nM.
